The values below come from patent publication US5220018A, “Cholecystokinin antagonists” (Merck & Co., Inc., priority 1992, dated 1993).

Read-outs that look alike come from different tables or passages of the source. Non-standard residues stand in square brackets, D forms with d. Residues, ends and D or L forms follow the SMILES beside them. *: point of attachment. sY = N[C@@H](Cc1ccc(OS(=O)(=O)O)cc1)C(=O)O; Cbz = O=C(OCc1ccccc1)*

For test [1], the system named is CCK-B receptors. The settings on record: literature, Bock et al. 1989; cited from earlier work.
The subject of test [2] is CCK receptor. The settings on record: literature; cited from earlier work.
Test [3] has as its target T1, Gastrin Receptor (Cavia porcellus, UniProt H0VZC5).
T1 construct: from tissue; host or cells: guinea pig gastric mucosal glands (collagenase-dispersed)
T1 sequence (H0VZC5 1-426): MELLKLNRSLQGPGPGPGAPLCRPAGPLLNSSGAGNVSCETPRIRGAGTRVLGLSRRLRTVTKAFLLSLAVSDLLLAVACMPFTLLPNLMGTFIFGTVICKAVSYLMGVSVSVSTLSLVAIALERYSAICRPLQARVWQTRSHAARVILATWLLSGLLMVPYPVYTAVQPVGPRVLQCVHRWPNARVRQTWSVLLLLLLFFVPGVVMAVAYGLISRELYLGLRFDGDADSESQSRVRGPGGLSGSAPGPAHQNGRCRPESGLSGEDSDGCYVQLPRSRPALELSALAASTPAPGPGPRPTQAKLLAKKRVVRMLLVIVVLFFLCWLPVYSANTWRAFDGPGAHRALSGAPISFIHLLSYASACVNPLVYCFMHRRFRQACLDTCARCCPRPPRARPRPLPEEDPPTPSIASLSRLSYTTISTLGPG
Kind of test: Gastrin Receptor Binding in Guinea Pig Gastric Glands. Also on record: species or system guinea pigs. Here is the method:
Gastrin antagonist activity of compounds of Formula I is determined using the following assay.
A. Gastrin Receptor Binding in Guinea Pig Gastric Glands
Preparation of guinea pig gastric mucosal glands
Guinea pig gastric mucosal glands were prepared by the procedure of Chang et al., Science 230, 177-179 (1985) with slight modification. Gastric mucosa from guinea pigs (300-500 g body weight, male Hartley) were isolated by scraping with a glass slide after washing stomachs in ice-cold, aerated buffer consisting of the following: 130 mM NaCl, 12 mM NaHCO3, 3 mM NaH2 PO4, 3 mM Na2 HPO4, 3 mM K2 HPO4, 2 mM MgSO4, 1 mM CaCl2, 5 mM glucose and 4 mM L-glutamine, 50 mM HEPES, 0.25 mg/ml bacitracin, 0.10 mg/ml soya bean trypsin inhibitor, 0.1 mg/ml bovine serum albumin, at pH 6.5, and then incubated in a 37° C. shaking water bath for 40 minutes in buffer containing 1 mg/ml collagenase and bubbled with 95% O2 and 5% CO2. The tissues were passed twice through a 5 ml syringe to liberate the gastric glands, and then filtered through Nitex #202 gauge nylon mesh. The filtered glands were centrifuged at 272 g for 5 minutes and washed twice by resuspension in 25 ml buffer and centrifugation.
The washed guinea pig gastric glands prepared as above were resuspended in 25 ml of standard buffer. […] The radioactivity on the filters was measured using a LKB gamma counter.

The target in test [4] is T2, CCK Receptor (Brain) (Cavia porcellus, UniProt H0VZC5).
T2 construct: the cortex was removed and homogenized in 25 mL ice-cold 0.32M sucrose; from tissue; host or cells: guinea pig cerebral cortex, P2 membrane pellet
T2 sequence (H0VZC5 1-426): T1 sequence (H0VZC5 1-426)
The experiment in a line: CCK Receptor Binding (Brain), inhibition of 125I-CCK-8 binding. Also on record: species or system Male Hartley guinea pigs. Here is the method:
2. CCK Receptor Binding (Brain)
CCK-8 sulphated was radiolabelled and the binding was performed according to the description for the pancreas method with minor modifications.
Male Hartley guinea pigs (300-500 g) were sacrificed by decapitation and the cortex was removed and homogenized in 25 mL ice-cold 0.32M sucrose. The homogenates were centrifuged at 1000 g for 10 minutes and the resulting supernatant was recentrifuged at 20,000 g for 20 minutes. […] All assays were run in duplicate. The reaction mixtures were incubated at 25° C. for 2 hours and then the reaction was terminated on Whatman GF/C filters by rapid filtration (Brandell 24 well cell Harvester) with 3×5 ml washes of cold 100 mM NaCl. The radioactivity on the filters was then counted with a LKB gamma counter.
(§1) Drug displacement studies were performed with at least 10 concentrations of compounds of formula 1 and the IC50 values were determined by regression analysis.

The target of test [5] is T3, CCK Receptor (Pancreas) (Rattus norvegicus, UniProt P30551).
T3 construct: The whole pancreas was dissected free of fat tissue and was homogenized; from tissue; host or cells: rat whole pancreas, homogenate membranes
T3 sequence (P30551 1-444): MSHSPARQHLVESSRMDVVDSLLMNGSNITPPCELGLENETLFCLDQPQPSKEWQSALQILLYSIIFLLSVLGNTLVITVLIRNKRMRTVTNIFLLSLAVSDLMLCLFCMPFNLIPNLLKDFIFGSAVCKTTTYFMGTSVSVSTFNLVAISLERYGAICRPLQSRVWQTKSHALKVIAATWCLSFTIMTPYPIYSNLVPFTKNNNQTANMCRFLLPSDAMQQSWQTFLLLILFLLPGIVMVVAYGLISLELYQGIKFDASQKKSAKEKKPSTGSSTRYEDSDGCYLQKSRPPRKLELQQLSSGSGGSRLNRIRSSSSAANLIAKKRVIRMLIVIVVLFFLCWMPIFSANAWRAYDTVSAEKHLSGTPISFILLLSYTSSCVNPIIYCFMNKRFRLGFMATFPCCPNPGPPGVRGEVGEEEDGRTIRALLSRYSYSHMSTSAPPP
Kind of test: biochemical. The class given is binding, Male Sprague-Dawley rats. The settings on record: rat pancreas membranes, 125I-CCK-8 50 pM, 25° C., 2 hours; read-out: IC50, 125I-CCK Pancreas. The method, then:
1. CCK Receptor Binding (Pancreas)
CCK-8 sulphated was radiolabelled with ^125 I-Bolton Hunter reagent (2000 Ci/mmole). Receptor binding was performed according to Chang and Lotti (Proc. Natl. Acad. Sci. 83, 4923-4926, 1986) with minor modifications.
Male Sprague-Dawley rats (150-200 g) were sacrificed by decapitation. The whole pancreas was dissected free of fat tissue and was homogenized in 25 volumes of ice-cold 10 mM Hepes buffer with 0.1% soya bean trypsin inhibitor (pH 7.4 at 25° C.) with a Kinematica Polytron. The homogenates were centrifuged at 47,800 g for 10 min. Pellets were resuspended in 10 volumes of binding assay buffer (20 mM Hepes, 1 mM EGTA, 5 mM MgCl2, 150 mM NaCl, bacitracin 0.25 mg/ml, soya bean trypsin inhibitor 0.1 mg/ml, and bovine serum albumin 2 mg/ml, pH 6.5 at 25° C.) using a teflon homogenizer, 15 strokes at 500 rpm. The homogenate was further diluted in binding assay buffer to give a final concentration of 0.5 mg original wet weight/1 ml buffer. […] All assays were run in duplicate. The reaction mixtures were incubated at 25° C. for 2 hours and the reaction terminated by rapid filtration (Brandell 24 well cell harvester) over Whatman GF/C filters, washing 3×4 mls with ice-cold 100 mM NaCl. The radioactivity on the filters was counted with a LKB gamma counter.
as §1

The subject of test [6] is gastrin. The settings on record: in vitro, literature; cited from earlier work.

Consider `Cc1cccc(NC(=O)N[C@@H]2N=C(c3ccccc3)c3ccccc3N(C)C2=O)c1` [(R)-N-(2,3-dihydro-1-methyl-2-oxo-5-phenyl-1H-1,4-benzodiazepin-3-yl)-N^1-(3-methylphenyl) urea], for which the “CCK-B receptor antagonism in words” value in test [1] is “potent and selective antagonist of CCK-B receptors”.
On to `CSCC[C@H](NC(=O)[C@H](Cc1ccc(OS(=O)(=O)O)cc1)NC(=O)OCc1ccccc1)C(=O)NCC(=O)N[C@@H](Cc1c[nH]c2ccccc12)C(=O)N[C@@H](CCSC)C(=O)N[C@@H](CC(=O)O)C(N)=O` [Cbz-Tyr(SO3 H)-Met-Gly-Trp-Met-Asp-NH2] (Cbz-[sY]MGWMD-NH2), for which the “CCK receptor activity in words” value in test [2] was “partial agonist”.
For orientation: IC50 means the midpoint of a concentration-inhibition curve. In the case of `CN1C(=O)[C@H](NC(=O)Nc2cccc(-c3nnn[nH]3)c2)N=C(c2ccccc2)c2ccccc21` [Example 1, N-{1,3-Dihydro-1-methyl-2-oxo-5-phenyl-1H-1,4-benzodiazepin-3-yl}-N'-{[3-(1H-tetrazol-5-yl)phenyl]urea}], the results for the IC50 in test [3], in test [4] and in test [5] were 0.7 nM, 1 nM and 400 nM, respectively.
As for `CC(C)CN1C(=O)[C@H](NC(=O)Nc2cccc(-c3nnn[nH]3)c2)N=C(c2ccccc2)c2ccccc21` [Example 2, N-{1,3-Dihydro-1-[2-methyl]propyl-2-oxo-5-phenyl-1H-1,4-benzodiazepin-3-yl}-N'-{[3-(1H-tetrazol-5-yl)phenyl]urea}], the IC50 in test [3] (guinea pig gastric glands, method: 125I-gastrin 0.1 nM, 25° C., 30 minutes, read-out: IC50, 125I-CCK Gastric Glands) was 0.24 nM; in test [4] (guinea pig cortex membranes, 125I-CCK-8 50 pM, 25° C., 2 hours, read-out: IC50, 125I-CCK Brain), 0.1 nM; in test [5], 1400 nM.
Regarding `CCCC(=O)Nc1nc2c(ncn2[C@@H]2O[C@@H]3COP(=O)(O)O[C@H]3[C@H]2OC(=O)CCC)c(=O)[nH]1` [dibutyryl cyclic GMP], the “CCK receptor activity in words” value in test [2] was “the most potent”.
Turning to `CCCN(CCC)C(=O)C(CCC(=O)O)NC(=O)c1ccccc1` (stereo not shown) [proglumide], in test [6], the “gastrin antagonism in words” value is “very weak in vitro antagonists”.
